Values quoted from earlier work in patent US10398705B2, “Pharmaceutical tablet formulation for the veterinary medical sector, method of production and use thereof” (BOEHRINGER INGELHEIM VETMEDICA GMBH, priority 2012, dated 2019).

Conditions: known property; background description

In the case of `COc1ccc(-c2nc3ccc(C4=NNC(=O)CC4C)cc3[nH]2)cc1` (racemic) [pimobendan, (RS)-6-[2-(4-methoxyphenyl)-1H-benzimidazol-5-yl]-5-methyl-4,5-dihydropyridazin-3(2H)-one], the solubility is listed as “poor and pH-dependent solubility”.
For `CCOC(=O)[C@H](CCc1ccccc1)N[C@H]1CCc2ccccc2N(CC(=O)O)C1=O` (relative stereo) [benazepril, [S—(R*,R*J]-3-[[1-(ethoxycarbonyl)-3-phenylpropyl]amino]-2,3,4,5-tetrahydro-2-oxo-1H-1-benzazepin-1-acetic acid], the solubility is given as “well water-soluble”.
